Results published in patent publication US8309558B2, “Compounds for the treatment of hepatitis C” (Bristol-Myers Squibb Company, priority 2008, dated 2012).
Where two headings read alike, the source gives them in different places.

Columns and labels:
[1] = tested on: HCV replicon cells; test: HCV replicon FRET / luciferase assay (96-well plates); type: cell-based; conditions: Hepatitis C virus, HCV replicon, read-out: EC50
Procedure, shortened: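 Trypsinized replicon cells were seeded with compound titrations and incubated at 37 °C for various times. Alamar blue was added to gauge toxicity. Plates were then rinsed and either lysed with FRET peptide reagent for kinetic fluorescence reading or switched to phenol red-free DMEM for luciferase measurement.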

[2] = biological target: T1, HCV NS5B RdRp genotype 1b (Hepatitis C virus genotype 1b, UniProt Q9WMX2); test: Standard HCV NS5B RdRp enzyme assay; type: biochemical; conditions: HCV NS5B RdRp genotype 1b, read-out: IC50
T1 construct: The protein was expressed with an 18 amino acid C-terminal truncation to enhance the solubility; made in house; host or cells: E. coli BL21(DE3), pET21a vector
Procedure, shortened: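 C-terminally truncated (18 aa) genotype 1b NS5B from E. coli, 28 nM, with 6 nM polyA template, 180 nM biotinylated oligo-dT12 primer and 3H-UTP (0.29 μM total UTP). Hepes pH 7.5 buffer with 2% DMSO; 60 min at 30° C. EDTA stop, SPA read-out; IC50 from seven concentrations by four-parameter fit.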

[3] = untitled table after Table 1b, values without asterisk

T1 sequence (Q9WMX2 2420-2992): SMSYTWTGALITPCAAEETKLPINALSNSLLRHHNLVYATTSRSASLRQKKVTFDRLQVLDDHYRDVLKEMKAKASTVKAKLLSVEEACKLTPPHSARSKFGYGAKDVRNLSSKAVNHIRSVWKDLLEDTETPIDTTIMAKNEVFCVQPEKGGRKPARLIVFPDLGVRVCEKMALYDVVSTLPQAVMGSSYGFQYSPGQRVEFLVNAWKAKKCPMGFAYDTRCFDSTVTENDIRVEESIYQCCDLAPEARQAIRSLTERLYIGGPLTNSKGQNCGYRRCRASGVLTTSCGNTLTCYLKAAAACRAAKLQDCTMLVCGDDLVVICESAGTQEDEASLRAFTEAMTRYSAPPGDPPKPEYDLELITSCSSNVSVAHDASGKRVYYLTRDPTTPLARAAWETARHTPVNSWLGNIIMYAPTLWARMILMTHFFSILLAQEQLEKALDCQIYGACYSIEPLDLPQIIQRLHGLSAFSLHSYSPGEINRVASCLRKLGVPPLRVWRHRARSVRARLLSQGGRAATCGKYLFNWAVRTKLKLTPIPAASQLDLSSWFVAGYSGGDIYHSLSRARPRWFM

Compound	EC50 ([1]; Table 1a) [µM]	IC50 ([2]; Table 1a) [µM]	EC50 ([1]; Table 1b) [µM]	IC50 ([2]; Table 1b) [µM]	other results
CNC(=O)c1c(-c2ccc(F)cc2)oc2ccc(-c3cccc(C(=O)Nc4cccc(O)c4)c3)cc12	1 to 10	1 to 10			
CNC(=O)c1c(-c2ccc(F)cc2)oc2ccc(-c3ccc(C(=O)NCC(=O)OC)cc3)cc12	1 to 10	> 10			
CNC(=O)c1c(-c2ccc(F)cc2)oc2ccc(-c3ccc(/C=C/C(=O)O)cc3)cc12	1 to 10	1 to 10			
CNC(=O)c1c(-c2ccc(F)cc2)oc2ccc(-c3ccc(-c4ccccc4C(N)=O)c(C(=O)NC4(c5ccccn5)CC4)c3)cc12			< 0.25	< 0.25	
CNC(=O)c1c(-c2ccc(F)cc2)oc2ccc(-c3ccc(C(=O)N(C)CC(=O)N(C)C)cc3)cc12	> 10	> 10			
CNC(=O)c1c(-c2ccc(F)cc2)oc2cc(N)c(-c3cc(C(=O)NC4(c5ccccc5)CC4)ccc3OC)cc12			< 0.25	< 0.25	
CNC(=O)c1c(-c2ccc(F)cc2)oc2ccc(-c3cc(C(=O)NC4(c5ccccn5)CC4)cc(F)c3C)cc12 [drawing 558]			< 0.25	< 0.25	
CNC(=O)c1c(-c2ccc(F)cc2)oc2ccc(-c3cc(OCC4CC4)cc(C(=O)NCC(C)C)c3)cc12			0.25 to 1	> 10	
CNC(=O)c1c(-c2ccc(F)cc2)oc2ccc(-c3ccc(Cl)c(C(=O)NC(C)(C)c4ccccc4)c3)cc12	< 0.25	< 0.25			
CNC(=O)c1c(-c2ccc(F)cc2)oc2cc(NS(C)(=O)=O)c(-c3cc(C(=O)NC4(c5ccccc5)CC4)ccc3F)cc12			< 0.25	< 0.25	
CNC(=O)c1c(-c2ccc(F)cc2)oc2ccc(-c3cc(C(=O)NC4(c5cnc(C)cn5)CC4)ccc3C)c(F)c12					EC50 ([1]; 24 h, Table 1d (class symbols)): 0.001 to 0.25 µM; IC50 ([2]; Table 1d (class symbols)): 0.001 to 0.25 µM
CNC(=O)c1c(-c2ccc(F)cc2)oc2ccc(-c3cc(C(=O)NCC(C)C)ccc3F)cc12	< 0.25	< 0.25			
CNC(=O)c1c(-c2ccc(F)cc2)oc2ccc(-c3ccc(C(=O)NCCNC(C)=O)cc3)cc12	> 10	> 10			
CNC(=O)c1c(-c2ccc(F)cc2)oc2ccc(-c3cc(C(=O)NC4(c5ccccn5)CC4)ccc3Cl)cc12 [drawing 605]					EC50 [1, 3]: 0.00183 µM; IC50 ([2]; untitled table after Table 1b): 0.01 µM
CNC(=O)c1c(-c2ccc(F)cc2)oc2ccc(-c3cccc(C(=O)NC(C)(C)C(=O)NCC(F)F)c3)cc12	< 0.25	< 0.25			
CNC(=O)c1c(-c2ccc(F)cc2)oc2ccc(-c3cccc(S(=O)(=O)NC)c3)cc12	> 3.7	> 10			
CN1CN(C)c2c(-c3cccc(C(=O)NC(C)(C)c4ccccc4)c3)ccc3oc(-c4ccc(F)cc4)c(c23)C1=O	> 10	> 10			
CNC(=O)c1c(-c2ccc(F)cc2)oc2ccc(-c3cc(C(=O)NC4(c5nnc(-c6cccnc6)[nH]5)CC4)ccc3C)cc12			< 0.25	< 0.25	
CNC(=O)c1c(-c2ccc(F)cc2)oc2ccc(-c3cc(C(=O)NC4(c5ccccn5)CC4)c(F)cc3C)cc12			< 0.25	< 0.25	
CNC(=O)c1c(-c2ccc(F)cc2)oc2ccc(-c3cnc(OC)c(F)c3)cc12	1 to 10	> 10			

Compound	EC50 ([1]; Table 1a) [µM]	IC50 ([2]; Table 1a) [µM]	EC50 ([1]; Table 1b) [µM]	IC50 ([2]; Table 1b) [µM]	other results
CNC(=O)c1c(-c2ccc(F)cc2)oc2ccc(-c3cccc(-c4ccnn4Cc4ccccc4)c3)cc12			< 0.25	< 0.25	
CNC(=O)c1c(-c2ccc(F)cc2)oc2ccc(-c3cccc(C(=O)Nc4ccccc4Cl)c3)cc12	1 to 10	1 to 10			
CNC(=O)c1c(-c2ccc(F)cc2)oc2ccc(-c3cc(C(=O)NC4(c5ccccn5)CC4)c(OC)cc3Cl)cc12			< 0.25	< 0.25	
CNC(=O)c1c(-c2ccc(F)cc2)oc2ccc(-c3cc(C(=O)NC4(c5ccccn5)CC4)ccc3C)cc12 [drawing 606]					EC50 [1, 3]: 0.00195 µM; IC50 ([2]; untitled table after Table 1b): 0.0086 µM
CNC(=O)c1c(-c2ccc(F)cc2)oc2ccc(-c3cc(C(=O)NCC(C)C)ccc3OCCC(C)C)cc12			1 to 10	> 10	
CNC(=O)c1c(-c2ccc(F)cc2)oc2ccc(-c3ccc(-c4cccc(CC#N)c4)c(C(=O)NCC(C)C)c3)cc12			< 0.25	< 0.25	
CNC(=O)c1c(-c2ccc(F)cc2)oc2ccc(-c3cccc(C(=O)NCCC#N)c3)cc12	0.25 to 1	0.25 to 1			
CNC(=O)c1c(-c2ccc(F)cc2)oc2ccc(-c3cc(C(=O)CCC(C)C)ccc3OCCN(C)C)cc12	< 0.25	< 0.25			
CNC(=O)c1c(-c2ccc(F)cc2)oc2ccc(-c3cc(C(=O)NC4(c5ccccn5)CC4)c(OCC(C)C)cc3C)cc12					EC50 ([1]; 24 h, Table 1d (class symbols)): 0.001 to 0.25 µM; IC50 ([2]; Table 1d (class symbols)): 0.001 to 0.25 µM
CNC(=O)c1c(-c2ccc(F)cc2)oc2ccc(-c3cccc4[nH]ccc34)cc12	0.25 to 1	> 10			
CNC(=O)c1c(-c2ccc(F)cc2)oc2ccc(-c3cc(C(=O)NCC(C)C)ccc3OCCCN)cc12			< 0.25	< 0.25	
CNC(=O)c1c(-c2ccc(F)cc2)oc2ccc(-c3ccc(C(=O)OC(C)(C)C)cc3)cc12	> 10	> 10			
CNC(=O)c1c(-c2ccc(F)cc2)oc2ccc(-c3cc(OCCn4cncn4)cc(C(=O)NCC(C)C)c3)cc12			1 to 10	0.25 to 1	
CNC(=O)c1c(-c2ccc(F)cc2)oc2ccc(-c3cccc(C(=O)Nc4ccon4)c3)cc12	1 to 10	0.25 to 1			
CNC(=O)c1c(-c2ccc(F)cc2)oc2ccc(-c3cccc(-c4nnc(C(C)C)o4)c3)cc12	< 0.25	< 0.25			
CNC(=O)c1c(-c2ccc(F)cc2)oc2ccc(-c3cccc(C(=O)N(C)C)c3)cc12	1 to 10	1 to 10			
CNC(=O)c1c(-c2ccc(F)cc2)oc2ccc(-c3cccc(C(=O)N4CCN(C)CC4)c3)cc12	> 10	> 10			
CNC(=O)c1c(-c2ccc(F)cc2)oc2ccc(-c3cccc(C(=O)N4CCCCC4C)c3)cc12 (stereo not drawn) [drawing 611]					EC50 [1, 3]: 1.13 µM; IC50 ([2]; untitled table after Table 1b): 0.29 µM
CNC(=O)c1c(-c2ccc(F)cc2)oc2ccc(-c3cccc(C(=O)N[C@@H](CO)c4ccccc4)c3)cc12	1 to 10	0.25 to 1			
CNC(=O)c1c(-c2ccc(F)cc2)oc2ccc(-c3cc(C(=O)NCC(C)C)ccc3OCCOC)cc12			< 0.25	0.25 to 1	

Compound	EC50 ([1]; Table 1a) [µM]	IC50 ([2]; Table 1a) [µM]	EC50 ([1]; Table 1b) [µM]	IC50 ([2]; Table 1b) [µM]	other results
CNC(=O)c1c(-c2ccc(F)cc2)oc2ccc(-c3ccc(C(=O)NCCO)cc3)cc12	1 to 10	> 10			
CNC(=O)c1c(-c2ccc(F)cc2)oc2ccc(-c3cc(C(=O)NC(C)(C)c4ccccc4)ccc3OC)cc12 [drawing 355]			< 0.25	< 0.25	
CNC(=O)c1c(-c2ccc(F)cc2)oc2ccc(-c3cc(C(=O)NC4(c5cc(C)on5)CC4)c(OC)cc3C)cc12			< 0.25	< 0.25	
CNC(=O)c1c(-c2ccc(F)cc2)oc2ccc(-c3cc(C(=O)NC4(c5ccccn5)CC4)c(OC(C)C)cc3C)cc12			< 0.25	< 0.25	
CNC(=O)c1c(-c2ccc(F)cc2)oc2ccc(-c3cccc(C(=O)N(C)CCC#N)c3)cc12 [drawing 204]	1 to 10	0.25 to 1			
CNC(=O)c1c(-c2ccc(F)cc2)oc2ccc(-c3cccc(C(=O)Nc4ccnc(C)c4)c3)cc12	0.25 to 1	1 to 10			
CNC(=O)c1c(-c2ccc(F)cc2)oc2ccc(-c3cc(C(=O)NCC(C)C)ccc3OC3CCC3)cc12	0.25 to 1	> 1.39			
CNC(=O)c1c(-c2ccc(F)cc2)oc2ccc(-c3cccc(C(=O)N(C)c4ccncc4)c3)cc12	> 10	1 to 10			
CNC(=O)c1c(-c2ccc(F)cc2)oc2ccc(-c3cc(OCCN(C)C)cc(C(=O)NCC(C)C)c3)cc12			0.25 to 1	0.25 to 1	
CNC(=O)c1c(-c2ccc(F)cc2)oc2ccc(-c3cc(OCCOC)cc(C(=O)NCC(C)C)c3)cc12			1 to 10	> 0.5	
CNC(=O)c1c(-c2ccc(F)cc2)oc2ccc(-c3cccc(C(=O)NCc4cccnc4)c3)cc12	0.25 to 1	< 0.25			
CNC(=O)c1c(-c2ccc(F)cc2)oc2ccc(-c3cc(C(=O)NC4(C#N)CC4)ccc3C)cc12			< 0.25	< 0.25	
C=CCNC(=O)C(C)(C)NC(=O)c1cccc(-c2ccc3oc(-c4ccc(F)cc4)c(C(=O)NC)c3c2)c1	0.25 to 1	0.25 to 1			
CNC(=O)c1c(-c2ccc(F)cc2)oc2ccc(-c3cccc(C(=O)N4CCC[C@H]4CO)c3)cc12	1 to 10	0.25 to 1			
CNC(=O)c1c(-c2ccc(F)cc2)oc2ccc(-c3cccc(-c4nc(C(C)C)no4)c3)cc12			0.25 to 1	> 1.39	
CNC(=O)c1c(-c2ccc(F)cc2)oc2cc([N+](=O)[O-])c(-c3cccc(C(=O)NC(C)(C)c4ccccc4)c3)cc12	< 0.25	< 0.25			
CNC(=O)c1c(-c2ccc(F)cc2)oc2ccc(-c3cc(C(=O)NC4(c5ncccn5)CC4)ccc3C)cc12 [drawing 570]			< 0.25	< 0.25	
CNC(=O)c1c(-c2ccc(F)cc2)oc2ccc(-c3ccc(-c4cccnc4C)c(C(=O)NCC(C)C)c3)cc12			< 0.25	< 0.25	
CNC(=O)c1c(-c2ccc(F)cc2)oc2ccc(-c3cc(C)c(Br)cc3C)cc12	> 3.7	> 10			
CNC(=O)c1c(-c2ccc(F)cc2)oc2ccc(-c3cc(C(=O)O)c(C)cc3C)c(F)c12			> 10	1 to 10	
